From ChEMBL document CHEMBL1150251, “SAR and QSAR study on 2-aminothiazole derivatives, modulators of transcriptional repression in Huntington's disease” (Bioorg Med Chem, 2008)

System: ST14A
Experiment: Modulation of RE1/NRSE expressed in ST14A cells assessed as increase in luciferase reporter activity at 50 nM after 72 hrs relative to control
Assay type: cell-based

Cc1nc2sccn2c1-c1csc(Nc2ccc(N(C)C)cc2)n1
Activity: 1.8

Cc1nc2ccccn2c1-c1csc(NCc2ccccc2)n1
Activity: 0.97

Cc1ccn2c(-c3csc(NCc4ccco4)n3)c(C)nc2c1
Activity: 0.99

Cc1nc2ccccn2c1-c1csc(NCc2ccco2)n1
Activity: 1.01

CCOc1ccc(Nc2nc(-c3c(C)nc4cc(C)ccn34)cs2)cc1
Activity: 1.88

Cc1ccn2c(-c3csc(NCc4ccccc4)n3)c(C)nc2c1
Activity: 1.3

Cc1ccn2c(-c3csc(Nc4ccc(C(=O)O)cc4)n3)c(C)nc2c1
Activity: 1.12

Cc1ccn2c(-c3csc(Nc4ccc(N)cc4)n3)c(C)nc2c1
Activity: 1.14

Cc1ccn2c(-c3csc(Nc4cccc(C(=O)O)c4)n3)c(C)nc2c1
Activity: 1.14

CN(C)c1ccc(Nc2nc(-c3ccncc3)cs2)cc1
Activity: 1.13

CCN(CC)c1ccc(Nc2nc(-c3c(C)nc4sccn34)cs2)cc1
Activity: 1.04

Cc1ccn2c(-c3csc(Nc4ccc(N(C)C)cc4)n3)c(C)nc2c1
Activity: 2.55

COc1ccc(Nc2nc(-c3c(C)nc4cc(C)ccn34)cs2)cc1
Activity: 2.19

CCN(CC)c1ccc(Nc2nc(-c3c(C)nc4ccccn34)cs2)cc1
Activity: 1.09

CCN(CC)c1ccc(Nc2nc(-c3c(C)nc4cc(C)ccn34)cs2)cc1
Activity: 1.06

COc1ccc(Nc2nc(-c3c(C)nc4ncccn34)cs2)cc1
Activity: 2.29

Cc1nc2ccccn2c1-c1csc(NC(=O)c2cccnc2)n1
Activity: 0.98

COc1cc(Br)c(Nc2nc(-c3c(C)nc4ncccn34)cs2)c(Br)c1
Activity: 1.03

Cc1nc2sccn2c1-c1csc(Nc2ccc(N)cc2)n1
Activity: 1.14

Cc1nc2ccccn2c1-c1csc(NC(=O)c2ccc(Br)cc2)n1
Activity: 0.94

Cc1nc2ccccn2c1-c1csc(Nc2ccc(O)cc2)n1
Activity: 1.02

COc1ccccc1Nc1nc(-c2c(C)nc3ncccn23)cs1
Activity: 0.97

COc1ccc(Cl)c(Nc2nc(-c3c(C)nc4ncccn34)cs2)c1
Activity: 0.74

Cc1nc2ccccn2c1-c1csc(NC(=O)c2ccncc2)n1
Activity: 1

Cc1nc2sccn2c1-c1csc(Nc2ccc(O)cc2)n1
Activity: 0.95

Cc1nc2ncccn2c1-c1csc(Nc2ccc(O)cc2)n1
Activity: 0.89

Cc1nc2ccccn2c1-c1csc(Nc2ccc(N)cc2)n1
Activity: 1.28

Cc1nc(N)sc1-c1csc(Nc2ccc(N(C)C)cc2)n1
Activity: 1.23

Cc1nc2ccccn2c1-c1csc(NC(=O)c2ccccc2)n1
Activity: 1.09

COc1cc(Br)c(Nc2nc(-c3c(C)nc4cc(C)ccn34)cs2)c(Br)c1
Activity: 1.07

COc1ccc(Nc2nc(-c3c(C)nc4ccccn34)cs2)cc1
Activity: 2

COc1ccc(Cl)c(Nc2nc(-c3c(C)nc4sccn34)cs2)c1
Activity: 0.91

Cc1nc2ccccn2c1-c1csc(N)n1
Activity: 0.87

CCN(CC)c1ccc(Nc2nc(-c3c(C)nc4ncccn34)cs2)cc1
Activity: 1.16

Cc1nc2ccccn2c1-c1csc(Nc2ccccc2)n1
Activity: 1.01

Cc1nc2ncccn2c1-c1csc(Nc2ccc(N(C)C)cc2)n1
Activity: 3.34

Cc1nc2ccccn2c1-c1csc(Nc2cccc(O)c2)n1
Activity: 1.04

CCOc1ccccc1Nc1nc(-c2c(C)nc3cc(C)ccn23)cs1
Activity: 0.94

Cc1nc2ccccn2c1-c1csc(NC(=O)c2ccco2)n1
Activity: 0.94

Cc1ccn2c(-c3csc(Nc4ccc(O)cc4)n3)c(C)nc2c1
Activity: 1.08

COc1ccc(Cl)c(Nc2nc(-c3c(C)nc4ccccn34)cs2)c1
Activity: 1.09

C=CCNc1nc(-c2c(C)nc3ccccn23)cs1
Activity: 0.91

Cc1nc2ccccn2c1-c1csc(Nc2ccc(Br)cc2)n1
Activity: 1.9

CN(C)c1ccc(Nc2nc(-c3ccccc3)cs2)cc1
Activity: 1.3

Cc1ccnc(Nc2nc(-c3c(C)nc4ccccn34)cs2)c1
Activity: 0.98
